Measurements as given in patent publication US9376415B2, “Tricyclic condensed heterocyclic compound, process of producing same, and use thereof” (NIPPON SUISAN KAISHA, LTD., priority 2009, dated 2016).

How the values were obtained:
Type in all cases: cell-based
[1] = tested on: HT-29; assay: Cell growth inhibitory activity (Almar Blue), HT-29; details: Homo sapiens; HT-29 cancer cells, cultured for 72 hours
Description: (§1) The cell growth inhibitory activity of Compound 1 was evaluated using 4 types of cancer cells. The cancer cells used were human cancer cells (HT-29, A431, NCI-H460, […]). Compound 1 was dissolved in DMSO. One hundred […] of a suspension of cancer cells was charged in each 96 well micro plate (1.0 to 3.0×10^3 cells/well). After 24 hours, each of solutions of Compounds 1 to 6 was added in an amount of 2 ml to 100 ml of culture fluid to give final concentrations of […] and cultured for 72 hours. Thereafter, 20 ml of an Almar Blue reagent was added to each solution, followed by culturing for 6 hours.
The cell growth inhibitory activity of Compound 6 was evaluated using cancer cells (HT-29). The method for the evaluation was the same as the method by which Compound 1 was evaluated.

[2] = tested on: PC-3; assay: Cell growth inhibitory activity (Almar Blue), PC-3; details: Homo sapiens; PC-3 cancer cells, cultured for 72 hours
[3] = tested on: NCI-H460; assay: Cell growth inhibitory activity (Almar Blue), NCI-H460; details: Homo sapiens; NCI-H460 cancer cells, cultured for 72 hours
Description: as §1

[4] = tested on: U937; assay: Cell growth inhibitory activity (Almar Blue), U937; details: Homo sapiens, U-937; U937 cancer cells, cultured for 72 hours
Description: as §1

IC50 [1] | IC50 [2] | IC50 [3] | IC50 [4] | SMILES
590 nM | 820 nM | 580 nM | 1100 nM | C/C=C(/C)C1OC2C(C)=CC(C)(/C=C/C(=O)O)C3C(C)=CC1(C)C23C (centres unmarked) [Compound 1]
310 nM | – | – | – | C=C1C(O)C(C)(/C=C/C(=O)O)C2C(C)=CC3(C)C(/C(C)=C\C)OC1C23C (centres unmarked) [Compound 6]
